Key:
Format in all cases: cell-based
[1] = molecular target: T1, heteromeric KV7.2/KV7.3 channels (KCNQ2, KCNQ3) (Homo sapiens, UniProt O43525+O43526); experiment: Automated patch-clamp (Sophion Qube 384) potency assay against KV7.2/KV7.3 channels; details: CHO-K1/Kv7.2/Kv7.3 cells; for EC50: EC50 from concentration-response of shift in Vhalf, 10 concentrations up to 30 μM, read-out: Kv7.2/7.3 EC50; for Kv7.2/7.3 ΔV1/2: maximal shift in the Vhalf from the top of the curve
T1 construct: expressed in transfected cells; host or cells: CHO-K1
Method in brief: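 Activator potency: EC50 from 4-parameter logistic fit of mean Vhalf shift across ten 1-in-3 dilutions starting at 30 μM (n=4), with DMSO (typically 0.3%) control. Currents recorded by leak-subtracted whole-cell clamp of stable CHO-K1 KV7.2/KV7.3 cells, held at −80 mV, stepped −100 to +20 mV then 0 mV tails.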

[2] = molecular target: T2, homomeric KV7.4 channel (KCNQ4) (Homo sapiens, UniProt P56696); experiment: Automated patch-clamp (Qube) counter-screening assay against KV7.4 channel; details: CHO-K1 cells expressing KV7.4; class by maximal shift in the Vhalf at 30 μM
T2 construct: host or cells: CHO-K1
Text: Assessment of In Vitro Potency Against KV7.4 Channels
A counter-screening assay was also developed on the Qube against the homomeric KV7.4 channel (KCNQ4, Uniprot ID P56696). The cell line used was a stably transfected CHO-K1 with constitutive KV7.4 expression supplied by Charles River Laboratories.
CHO-K1 cells stably expressing KV7.4 channels were maintained in the following culture media: • Hams F-12 with GlutaMAX™ (Life Technologies 31765027), • 10% Fetal clone 2 serum (Perbio Science SH30066.03), and • 250 μg/ml Geneticin™ selective antibiotic (G418, Invitrogen 1013-027).
(§1) Cell maintenance, preparation, recording conditions and voltage protocols were all identical to those above.
(§2) Analysis of Data for Assessment of Potency
(§3) 10 concentrations of test compounds were applied to individual wells in quadruplicate to assess potency as a 1 in 3 dilution series from the maximal concentration of 30 μM. The average shift in the voltage for half activation (Vhalf) for each concentration was used to generate concentration-response curves fitted with a 4-parameter logistic model to estimate the EC50 from the point of inflection of the curve and the maximal shift in the Vhalf from the top of the curve.
(§4) The lower the EC50 value, the higher the potency of the analyzed compound. The selectivity criteria is assigned on the basis of the maximal shift in the Vhalf at 30 μM. […] In Table 3, ND means that selectivity was not determined.

[3] = molecular target: T3, heteromeric KV7.3/KV7.5 channel (KCNQ3, KCNQ5) (Homo sapiens, UniProt O43525+Q9NR82); experiment: Automated patch-clamp counter-screening against KV7.3/KV7.5 channel; details: HEK293 cells expressing Kv7.3/KV7.5; class by maximal shift in the Vhalf at 30 μM
T3 construct: host or cells: HEK293
Protocol: Assessment of in vitro potency against KV7.3/KV7.5 channels
Counter-screening was also carried out against the heteromeric KV7.3/KV7.5 channel (KCNQ3, Uniprot ID 043525; KCNQ5, Uniprot ID Q9NR82). The cell line used was a stably transfected HEK293 cell line with constitutive Kv7.3 expression and tetracycline inducible KV7.5 expression supplied by Charles River Laboratories.
Cells were maintained in the following culture media: • DMEM/F-12 with GlutaMAX™ (Life Technologies 31331-028), • 10% Tet Systems FCS (Clonetech 631106), • 500 μg/ml Geneticin™ selective antibiotic (G418, Invitrogen 1013-027), • 5 μg/ml Blasticidin S HCl (InvivoGen ant-bl-5), and • 100 μg/ml Zeocin (InvivoGen: ant-zn-5).
as §1, §2, §3, §4

SMILES | EC50 [1] [µM] | Kv7.2/7.3 ΔV1/2 [1] [mV] | Kv7.4 selectivity criteria [2] | Kv7.3/7.5 selectivity criteria [3]
O=C(NCc1ccnc(OCC(F)(F)F)c1)NCC1CCCCC1 [Compound 36, 1-(Cyclohexylmethyl)-3-((2-(2,2,2-trifluoroethoxy)pyridin-4-yl)methyl)urea] | 0.435 | 31.09 | A (Selective compounds showed Kv7.4 and/or Kv7.3/7.5 ΔV1/2 equal to or lower than 15 mV (letter A in table 3)) | A (Selective compounds showed Kv7.4 and/or Kv7.3/7.5 ΔV1/2 equal to or lower than 15 mV (letter A in table 3))
Cc1ccccc1CNC(=O)NCc1ccnc(OCC(F)(F)F)c1 [Compound 37, 1-(2-Methylbenzyl)-3-((2-(2,2,2-trifluoroethoxy)pyridin-4-yl)methyl)urea] | 0.82 | 19.56 | A (Selective compounds showed Kv7.4 and/or Kv7.3/7.5 ΔV1/2 equal to or lower than 15 mV (letter A in table 3)) | A (Selective compounds showed Kv7.4 and/or Kv7.3/7.5 ΔV1/2 equal to or lower than 15 mV (letter A in table 3))
O=C(NCCC1(C(F)(F)F)CC1)NCc1cc(OCC(F)(F)F)ncn1 [Compound 38, 1-((6-(2,2,2-Trifluoroethoxy)pyrimidin-4-yl)methyl)-3-(2-(1-(trifluoromethyl)cyclopropyl)ethyl)urea] | 2.02 | 28.31 | A (Selective compounds showed Kv7.4 and/or Kv7.3/7.5 ΔV1/2 equal to or lower than 15 mV (letter A in table 3)) | A (Selective compounds showed Kv7.4 and/or Kv7.3/7.5 ΔV1/2 equal to or lower than 15 mV (letter A in table 3))
Cc1cc(CNC(=O)NCCC2(C(F)(F)F)CC2)cc(OCC(F)(F)F)n1 [Compound 39, 1-((2-Methyl-6-(2,2,2-trifluoroethoxy)pyridin-4-yl)methyl)-3-(2-(1-(trifluoromethyl)cyclopropyl)ethyl)urea] | 1.47 | 21.29 | A (Selective compounds showed Kv7.4 and/or Kv7.3/7.5 ΔV1/2 equal to or lower than 15 mV (letter A in table 3)) | A (Selective compounds showed Kv7.4 and/or Kv7.3/7.5 ΔV1/2 equal to or lower than 15 mV (letter A in table 3))
CC(C)(CCNC(=O)NCc1ccnc(OCC(F)(F)F)c1)C(F)(F)F [Compound 41, 1-(4,4,4-Trifluoro-3,3-dimethylbutyl)-3-((2-(2,2,2-trifluoroethoxy)pyridin-4-yl)methyl)urea] | 0.428 | 29.72 | A (Selective compounds showed Kv7.4 and/or Kv7.3/7.5 ΔV1/2 equal to or lower than 15 mV (letter A in table 3)) | A (Selective compounds showed Kv7.4 and/or Kv7.3/7.5 ΔV1/2 equal to or lower than 15 mV (letter A in table 3))
O=C(NCc1cccc(F)c1)NCc1ccnc(OCC(F)(F)F)c1 [Compound 42, 1-(3-Fluorobenzyl)-3-((2-(2,2,2-trifluoroethoxy)pyridin-4-yl)methyl)urea] | 0.872 | 16.7 | A (Selective compounds showed Kv7.4 and/or Kv7.3/7.5 ΔV1/2 equal to or lower than 15 mV (letter A in table 3)) | A (Selective compounds showed Kv7.4 and/or Kv7.3/7.5 ΔV1/2 equal to or lower than 15 mV (letter A in table 3))
O=C(NCc1ccnc(OCC(F)(F)F)c1)NC1CCCCC1 [Compound 43, 1-Cyclohexyl-3-((2-(2,2,2-trifluoroethoxy)pyridin-4-yl)methyl)urea] | 0.765 | 53.72 | B (Non-selective compounds showed Kv7.4 and/or Kv7.3/7.5 ΔV1/2 higher than 15 mV (letter B in table 3)) | B (Non-selective compounds showed Kv7.4 and/or Kv7.3/7.5 ΔV1/2 higher than 15 mV (letter B in table 3))
O=C(NCCC1(C(F)(F)F)CC1)NCc1ccnc(N2CC(C(F)(F)F)C2)c1 [Compound 44, 1-((2-(3-(Trifluoromethyl)azetidin-1-yl)pyridin-4-yl)methyl)-3-(2-(1-(trifluoromethyl)cyclopropyl)ethyl)urea] | 6.3 | 17.02 | A (Selective compounds showed Kv7.4 and/or Kv7.3/7.5 ΔV1/2 equal to or lower than 15 mV (letter A in table 3)) | A (Selective compounds showed Kv7.4 and/or Kv7.3/7.5 ΔV1/2 equal to or lower than 15 mV (letter A in table 3))
Cc1ccccc1NC(=O)NCc1ccnc(OCC(F)(F)F)c1 [Compound 46, 1-(o-Tolyl)-3-((2-(2,2,2-trifluoroethoxy)pyridin-4-yl)methyl)urea] | 0.432 | 21.41 | B (Non-selective compounds showed Kv7.4 and/or Kv7.3/7.5 ΔV1/2 higher than 15 mV (letter B in table 3)) | B (Non-selective compounds showed Kv7.4 and/or Kv7.3/7.5 ΔV1/2 higher than 15 mV (letter B in table 3))
C[C@H](Oc1cc(CNC(=O)NCCC2(C(F)(F)F)CC2)ccn1)C(F)(F)F [Compound 47, (S)-1-(2-(1-(Trifluoromethyl)cyclopropyl)ethyl)-3-((2-((1,1,1-trifluoropropan-2-yl)oxy)pyridin-4-yl)methyl)urea] | 0.254 | 26.23 | A (Selective compounds showed Kv7.4 and/or Kv7.3/7.5 ΔV1/2 equal to or lower than 15 mV (letter A in table 3)) | A (Selective compounds showed Kv7.4 and/or Kv7.3/7.5 ΔV1/2 equal to or lower than 15 mV (letter A in table 3))
CC(C)(OCCNC(=O)NCc1ccnc(OCC(F)(F)F)c1)C(F)(F)F [Compound 48, 1-(2-((1,1,1-Trifluoro-2-methylpropan-2-yl)oxy)ethyl)-3-((2-(2,2,2-trifluoroethoxy)pyridin-4-yl)methyl)urea] | 2.41 | 22.74 | A (Selective compounds showed Kv7.4 and/or Kv7.3/7.5 ΔV1/2 equal to or lower than 15 mV (letter A in table 3)) | A (Selective compounds showed Kv7.4 and/or Kv7.3/7.5 ΔV1/2 equal to or lower than 15 mV (letter A in table 3))
O=C(NCCC1(C(F)(F)F)CC1)NCc1ccnc(OCC(F)(F)F)n1 [Compound 49, 1-((2-(2,2,2-Trifluoroethoxy)pyrimidin-4-yl)methyl)-3-(2-(1-(trifluoromethyl)cyclopropyl)ethyl)urea] | 4.23 | 23.89 | A (Selective compounds showed Kv7.4 and/or Kv7.3/7.5 ΔV1/2 equal to or lower than 15 mV (letter A in table 3)) | A (Selective compounds showed Kv7.4 and/or Kv7.3/7.5 ΔV1/2 equal to or lower than 15 mV (letter A in table 3))
C[C@@H](Oc1cc(CNC(=O)NCCC2(C(F)(F)F)CC2)ccn1)C(F)(F)F [Compound 51, (R)-1-(2-(1-(Trifluoromethyl)cyclopropyl)ethyl)-3-((2-((1,1,1-trifluoropropan-2-yl)oxy)pyridin-4-yl)methyl)urea] | 0.289 | 33.62 | A (Selective compounds showed Kv7.4 and/or Kv7.3/7.5 ΔV1/2 equal to or lower than 15 mV (letter A in table 3)) | A (Selective compounds showed Kv7.4 and/or Kv7.3/7.5 ΔV1/2 equal to or lower than 15 mV (letter A in table 3))
O=C(NCCC1(C(F)(F)F)CC1)NCc1ccnc(OCc2ncccc2F)c1 [Compound 54, 1-((2-((3-Fluoropyridin-2-yl)methoxy)pyridin-4-yl)methyl)-3-(2-(1-(trifluoromethyl)cyclopropyl)ethyl)urea] | 7.61 | 22.67 | A (Selective compounds showed Kv7.4 and/or Kv7.3/7.5 ΔV1/2 equal to or lower than 15 mV (letter A in table 3)) | A (Selective compounds showed Kv7.4 and/or Kv7.3/7.5 ΔV1/2 equal to or lower than 15 mV (letter A in table 3))
